In patent US4443436A, “C-20-Modified macrolide derivatives of the macrolide antibiotics tylosin, desmycosin, macrocin, and lactenocin” (Eli Lilly and Company, priority 1982, dated 1984):
Values after ≈ are worked out from the molar mass of the structure shown. Where two headings read alike, the source gives them in different places.

Columns and labels:
[1] = tested on: Staphylococcus aureus X400; assay: MIC, standard agar-dilution assay, Staphylococcus aureus X400; format: cell-based; details: Staphylococcus aureus, X400
[2] = tested on: Staphylococcus epidermidis EPI1; assay: MIC, standard agar-dilution assay, Staphylococcus epidermidis EPI1; format: cell-based
[3] = tested on: Streptococcus pyogenes C203; assay: MIC, standard agar-dilution assay, Streptococcus pyogenes C203; format: cell-based
Mycoplasma gallisepticum = assay: MIC, broth-dilution microtiter test, Mycoplasma gallisepticum; format: cell-based; details: Mycoplasmoides gallisepticum
From the text: (§1) The MIC's in Table X were obtained using conventional broth-dilution microtiter tests.

Mycoplasma hyorhinis = assay: MIC, broth-dilution microtiter test, Mycoplasma hyorhinis; format: cell-based
From the text: as §1

[4] = tested on: Streptococcus Group D X66; assay: MIC, standard agar-dilution assay, Streptococcus Group D X66; format: cell-based; details: Streptococcus Group D X66; agar dilution; read-out: MIC
Streptococcus bovis 80 = assay: MIC, broth-dilution microtiter test, Streptococcus bovis 80; format: cell-based; details: Streptococcus equinus
From the text: as §1

[5] = tested on: Staphylococcus aureus S13E; assay: MIC, standard agar-dilution assay, Staphylococcus aureus S13E; format: cell-based; details: Staphylococcus aureus, S13E
Staphylococcus aureus = assay: MIC, broth-dilution microtiter test, Staphylococcus aureus; format: cell-based
From the text: as §1

[6] = tested on: Haemophilus influenzae R252; assay: MIC, standard agar-dilution assay, Haemophilus influenzae R252; format: cell-based
Mycoplasma synoviae = assay: MIC, broth-dilution microtiter test, Mycoplasma synoviae; format: cell-based; details: Mycoplasmopsis synoviae
From the text: as §1

[7] = tested on: Pasteurella multocida 60A; assay: MIC, broth-dilution microtiter test, Pasteurella multocida 60A; format: cell-based; details: Pasteurella multocida 60A; avian isolate; broth-dilution microtiter; read-out: MIC
From the text: as §1

Streptococcus Group 9960 = assay: MIC, standard agar-dilution assay, Streptococcus Group 9960; format: cell-based; details: GROUP9960; Streptococcus Group 9960; agar dilution; read-out: MIC
[8] = tested on: Staphylococcus aureus X1.1; assay: MIC, standard agar-dilution assay, Staphylococcus aureus X1.1; format: cell-based; details: Staphylococcus aureus, X1.1
[9] = tested on: Staphylococcus aureus V41; assay: MIC, standard agar-dilution assay, Staphylococcus aureus V41; format: cell-based
[10] = tested on: Pasteurella multocida 17E; assay: MIC, broth-dilution microtiter test, Pasteurella multocida 17E; format: cell-based
From the text: as §1

[11] = tested on: Streptococcus pyogenes C203; assay: In vivo protection of mice experimentally infected with S. pyogenes C203; details: Streptococcus pyogenes, mice, doses given 1 and 4 hours post-infection
Description: The C-20 modified derivatives of this invention have shown in vivo antimicrobial activity against experimentally-induced infections in laboratory animals. When two doses of test compound were administered to mice experimentally infected with S. pyogenes C203, the activity observed was measured as an ED50 value [effective dose in mg/kg to protect 50% of the test animals: see Warren Wick, et al., J. Bacteriol. 81, 233-235 (1961)].

[12] = tested on: Haemophilus influenzae Holt; assay: MIC, standard agar-dilution assay, Haemophilus influenzae Holt; format: cell-based
[13] = tested on: Pasteurella hemolytica 22C; assay: MIC, broth-dilution microtiter test, Pasteurella hemolytica 22C; format: cell-based; details: Pasteurella hemolytica 22C; broth-dilution microtiter; read-out: MIC
From the text: as §1

[14] = tested on: Streptococcus pneumoniae Park I; assay: microbe, parasite or virus in culture; format: cell-based
[15] = tested on: Staphylococcus epidermidis EPI2; assay: MIC, standard agar-dilution assay, Staphylococcus epidermidis EPI2; format: cell-based; details: Staphylococcus epidermidis, EPI2
[16] = Mycoplasma hyorhinis, broth-dilution microtiter, read-out: MIC
[17] = Streptococcus bovis 80, broth-dilution microtiter, read-out: MIC
[18] = Pasteurella multocida 17E, bovine isolate, broth-dilution microtiter, read-out: MIC
[19] = C203, sc, subcutaneous, read-out: ED50, Subcutaneous
[20] = C203, oral, read-out: ED50, Oral
[21] = Staphylococcus epidermidis, EPI1
[22] = Haemophilus influenzae R252, ampicillin-resistant strain, read-out: MIC
[23] = Haemophilus influenzae Holt, ampicillin-sensitive strain, read-out: MIC

| SMILES | MIC [1] | MIC (Mycoplasma gallisepticum) | MIC (Mycoplasma hyorhinis; [16]) | MIC [4] | MIC (Streptococcus bovis 80; [17]) | MIC [5] | MIC (Staphylococcus aureus) | MIC ([6]; Haemophilus influenzae, R252) | MIC [7] | MIC (Streptococcus Group 9960) | MIC [8] | MIC [10, 18] | ED50 [11, 19] | ED50 [11, 20] | MIC [13] | MIC ([14]; Streptococcus pneumoniae) | MIC [2, 21] | MIC ([3]; Streptococcus pyogenes, C203) | MIC [15] | MIC ([9]; Staphylococcus aureus, V41) | other results |
| --- | --- | --- | --- | --- | --- | --- | --- | --- | --- | --- | --- | --- | --- | --- | --- | --- | --- | --- | --- | --- | --- |
| CCC1OC(=O)CC(O)C(C)C(OC2OC(C)C(OC3CC(C)(O)C(O)C(C)O3)C(N(C)C)C2O)C(CCSc2nnnn2C)CC(C)C(=O)C=CC(C)=CC1COC1OC(C)C(O)C(OC)C1OC (stereo not shown) [Compound 5, 20-DH-DO-20-[(1-N-Methyltetrazol-5-yl)thio]tylosin] | 2 mg/L (≈ 1.97 µM) | 1.56 mg/L (≈ 1.54 µM) | > 50 mg/L | 128 mg/L (≈ 126 µM) | > 50 mg/L | 2 mg/L (≈ 1.97 µM) | 1.56 mg/L (≈ 1.54 µM) | 128 mg/L (≈ 126 µM) | > 50 mg/L | 128 mg/L (≈ 126 µM) | 0.5 mg/L (≈ 0.492 µM) | > 50 mg/L | > 6.3 mg/kg | 56 mg/kg | > 50 mg/L | 32 mg/L (≈ 31.5 µM) |  |  |  |  | MIC ([2]; Staphylococcus epidermidis EPI1, agar dilution, read-out: MIC): 1 mg/L (≈ 0.984 µM); MIC ([3]; Streptococcus pyogenes C203, agar dilution, read-out: MIC): 1 mg/L (≈ 0.984 µM); MIC (Mycoplasma synoviae): 3.12 mg/L (≈ 3.07 µM); MIC ([9]; Staphylococcus aureus V41, penicillin-resistant strain, agar dilution, read-out: MIC): 1 mg/L (≈ 0.984 µM); MIC ([12]; Haemophilus influenzae): > 128 mg/L |
| CCC1OC(=O)CC(O)C(C)C(OC2OC(C)C(OC3CC(C)(O)C(O)C(C)O3)C(N(C)C)C2O)C(CCI)CC(C)C(=O)C=CC(C)=CC1COC1OC(C)C(O)C(O)C1OC (stereo not shown) [Compound 52, 20-DH-DO-20-Iodomacrocin] | 8 mg/L (≈ 7.89 µM) | 3.12 mg/L (≈ 3.08 µM) |  | 128 mg/L (≈ 126 µM) | 50 mg/L (≈ 49.3 µM) | 4 mg/L (≈ 3.94 µM) | 12.5 mg/L (≈ 12.3 µM) |  | > 50 mg/L | 128 mg/L (≈ 126 µM) | 2 mg/L (≈ 1.97 µM) | > 50 mg/L |  |  | > 50 mg/L |  | 2 mg/L (≈ 1.97 µM) | 4 mg/L (≈ 3.94 µM) | 2 mg/L (≈ 1.97 µM) | 2 mg/L (≈ 1.97 µM) | MIC (Mycoplasma hyorhinis; Mycoplasma): 50 mg/L (≈ 49.3 µM); MIC [6, 22]: > 128 mg/L; MIC [12, 23]: > 128 mg/L; MIC ([14]; Streptococcus pneumoniae Park I, agar dilution, read-out: MIC): 16 mg/L (≈ 15.8 µM) |
| CCC1CC(C)C(=O)C=CC(C)=CC(COC2OC(C)C(O)C(O)C2OC)C(CC)OC(=O)CC(O)C(C)C1OC1OC(C)C(O)C(N(C)C)C1O (stereo not shown) [Compound 60, 20-DH-DO-Lactenocin] | 0.5 mg/L (≈ 0.672 µM) | 1.56 mg/L (≈ 2.1 µM) |  | 8 mg/L (≈ 10.8 µM) | 6.25 mg/L (≈ 8.4 µM) | 0.25 mg/L (≈ 0.336 µM) | 0.78 mg/L (≈ 1.05 µM) | 16 mg/L (≈ 21.5 µM) | 25 mg/L (≈ 33.6 µM) | 8 mg/L (≈ 10.8 µM) | 0.25 mg/L (≈ 0.336 µM) | 25 mg/L (≈ 33.6 µM) | 3.9 mg/kg | 46 mg/kg | 25 mg/L (≈ 33.6 µM) | 0.5 mg/L (≈ 0.672 µM) | 0.25 mg/L (≈ 0.336 µM) |  | 0.25 mg/L (≈ 0.336 µM) | 0.25 mg/L (≈ 0.336 µM) | MIC (Mycoplasma hyorhinis; Mycoplasma): 50 mg/L (≈ 67.2 µM); MIC (Mycoplasma synoviae; Mycoplasma synoviae, broth-dilution microtiter, read-out: MIC): > 50 mg/L |
| CCC1OC(=O)CC(O)C(C)C(OC2OC(C)C(OC3CC(C)(O)C(O)C(C)O3)C(N(C)C)C2O)C(CCN=[N+]=[N-])CC(C)C(=O)C=CC(C)=CC1COC1OC(C)C(O)C(OC)C1OC (stereo not shown) [Compound 2, 20-DH-DO-20-Azidotylosin] | 2 mg/L (≈ 2.12 µM) | 1.56 mg/L (≈ 1.65 µM) | > 50 mg/L | 128 mg/L (≈ 136 µM) | 50 mg/L (≈ 53 µM) | 1 mg/L (≈ 1.06 µM) | 3.12 mg/L (≈ 3.31 µM) |  | > 50 mg/L | 128 mg/L (≈ 136 µM) | 2 mg/L (≈ 2.12 µM) | > 50 mg/L | > 6.3 mg/kg | 18 mg/kg | > 50 mg/L | 32 mg/L (≈ 33.9 µM) | 1 mg/L (≈ 1.06 µM) | 2 mg/L (≈ 2.12 µM) |  | 1 mg/L (≈ 1.06 µM) | MIC [6, 22]: > 128 mg/L; MIC (Mycoplasma synoviae): 12.5 mg/L (≈ 13.3 µM); MIC [12, 23]: > 128 mg/L |
| CCC1OC(=O)CC(O)C(C)C(OC2OC(C)C(OC3CC(C)(O)C(O)C(C)O3)C(N(C)C)C2O)C(CCOC(=O)c2nn(CC)c3cc4c(cc3c2=O)OCO4)CC(C)C(=O)C=CC(C)=CC1COC1OC(C)C(O)C(OC)C1OC (stereo not shown) [Compound 10, 20-DH-20-O-Cinoxacinyltylosin] | 8 mg/L (≈ 6.88 µM) | 0.78 mg/L (≈ 0.671 µM) | 25 mg/L (≈ 21.5 µM) | 8 mg/L (≈ 6.88 µM) |  | 4 mg/L (≈ 3.44 µM) | 12.5 mg/L (≈ 10.8 µM) | 128 mg/L (≈ 110 µM) | > 50 mg/L | 8 mg/L (≈ 6.88 µM) | 1 mg/L (≈ 0.86 µM) |  |  |  | > 50 mg/L | 0.5 mg/L (≈ 0.43 µM) | 2 mg/L (≈ 1.72 µM) | 1 mg/L (≈ 0.86 µM) | 8 mg/L (≈ 6.88 µM) | 2 mg/L (≈ 1.72 µM) | MIC (Streptococcus bovis 80; 80): 3.12 mg/L (≈ 2.68 µM); MIC ([10]; Pasteurella multocida, 17E): > 50 mg/L; MIC ([12]; Haemophilus influenzae): 128 mg/L (≈ 110 µM) |
